This passage reports GI50 and TGI results from PubChem BioAssay (NCI).

What all share (test): NCI-60 cell line screen, 48 h
Experiment [1] concerns HOP-62 NSCLC.
Experiment [2] relates to HOP-92 NSCLC.
Experiment [3] has as its system IGROV1 ovarian.
For experiment [4], the system named is LOX IMVI melanoma.
Experiment [5] deals with OVCAR-8 ovarian.
Experiment [6] deals with SK-MEL-5 melanoma.
In experiment [7] the test system is SN12C renal.
The test system of experiment [8] is SNB-75 CNS.
Experiment [9] concerns U251 CNS.
Experiment [10] concerns UACC-62 melanoma.

Structures are written as SMILES.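 Tested at 5 concentrations; 48 h exposure; 96-well plates; endpoints linearly interpolated, else capped at highest concentration. At the GI50, growth is halved. TGI is the concentration that stops growth completely.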

Turning to `CCCCCCN(CCCCCC)CCCNc1nccc2ccccc12`, the GI50 in [1] was 1.46 µM; in [2] it was 1.01 µM; in [3] it was 1.89 µM; in [4], 1.43 µM; in [5], 1.67 µM; in experiment [6], 1.7 µM. The GI50 was 2.27 µM in experiment [7], 1.65 µM in [8], 1.54 µM in [9] and 1.69 µM in experiment [10]. Further, the TGI in experiment [1] worked out at 3.41 µM; in [2] it was 2.47 µM; in experiment [3], 4.75 µM; in [4], 2.94 µM; in [5], 3.19 µM; in experiment [6], 3.13 µM. For the same molecule, the TGI is 7.36 µM in [7], 4.22 µM in experiment [8], 2.96 µM in experiment [9] and 3.41 µM in experiment [10].
For the molecule `CCCCCCCCCc1cc(O)c(O)cc1CCCCCCCCC`, the TGI in [1], in experiment [2], in [3], in [4], in experiment [5] and in [6] was over 10 µM in each case. Moreover, the TGI in [7], in experiment [8], in experiment [9] and in experiment [10] was over 10 µM each time.
Consider `Nc1nnc2nc(CC(=O)/C=C/c3ccccc3)c(=O)[nH]n12`, for which the TGI in experiment [1], in experiment [2], in [3], in experiment [4], in experiment [5] and in experiment [6] was over 100 µM throughout. The TGI in experiment [7], in [8], in experiment [9] and in experiment [10] was over 100 µM in each case.
Consider `O=C1C2=C(C(=O)c3c(O)ccc(O)c31)N(c1ccc(N3CCOCC3)nc1)Cc1ccccc1O2`, for which the GI50 in [1] is 1.52 µM; in experiment [2], 0.202 µM; in [3], 0.277 µM; in [4], 0.188 µM; in [5] it was 0.35 µM; in experiment [6] it was 1.36 µM. The GI50 in experiment [7] was 0.262 µM; in [8] it was 1.24 µM; in experiment [9] it was 0.603 µM; in [10], 0.369 µM. For the same molecule, the TGI in experiment [1] was found to be 3.97 µM; in experiment [2], 0.469 µM; in experiment [3], 1.14 µM; in experiment [4], 0.517 µM; in experiment [5], 12.3 µM; in experiment [6], 2.76 µM. The TGI in [7] turned out to be 0.848 µM; in [8], 7.27 µM; in [9] it was 2.21 µM; in experiment [10] it was 1.56 µM.
As to `COc1ccc2c(=O)c([Se]c3coc4cc(OC)ccc4c3=O)coc2c1`, the TGI in [1], in experiment [2], in experiment [3], in [4], in [5] and in experiment [6] was over 100 µM throughout. Besides, the TGI was over 100 µM in experiment [7], 87.5 µM in experiment [8], over 100 µM in [9] and over 100 µM in [10].
As for `O=S(=O)(NCCNc1nccc(-c2c(-c3cccc(O)c3)nc3sccn23)n1)c1ccc(F)cc1`, the GI50 in [1] is 13.8 µM; in experiment [2], 11.5 µM; in experiment [3], 3.53 µM; in experiment [4], 4.11 µM; in [5], 4.61 µM; in experiment [6] it was 1.61 µM. Also, the GI50 in [7] was 4.26 µM; in experiment [8], 1.2 µM; in experiment [9] it was 7.48 µM; in experiment [10], 0.26 µM. The TGI is 56.5 µM in [1]; 57 µM in experiment [2]; 18.1 µM in experiment [3]; 20.1 µM in experiment [4]; 39.3 µM in experiment [5]; 3.98 µM in [6]. Moreover, the TGI stood at 44.9 µM in experiment [7], 34.9 µM in experiment [8], 49.3 µM in experiment [9] and 10.3 µM in experiment [10].
Turning to `CSC1=Nc2c(c(C)c(-c3ccccc3)n2COC(CO)CO)C2=NC(=O)C(C)N12` (stereo not given), the GI50 was over 100 µM in experiment [1]; over 100 µM in [2]; 26.5 µM in experiment [3]; over 100 µM in [4]; over 100 µM in experiment [5]; over 100 µM in [6]. For the same molecule, the GI50 was over 100 µM in experiment [7], 48.5 µM in [8], over 100 µM in experiment [9] and 70.1 µM in [10]. For the same molecule, the TGI in experiment [1], in [2], in experiment [3], in experiment [4], in experiment [5] and in experiment [6] was over 100 µM throughout. Also, the TGI in experiment [7], in experiment [8], in experiment [9] and in experiment [10] was over 100 µM each time.
Turning to `C/C(CC(O)(C(F)(F)F)C(F)(F)F)=N\N`, the TGI in [1], in experiment [2], in experiment [3], in experiment [4], in experiment [5] and in experiment [6] was over 10 µM throughout. Further, the TGI in experiment [7], in [8], in experiment [9] and in experiment [10] was over 10 µM each time.
As for `CCN(CC)CCn1ncc2ccc3c(c(=O)c4cccnc4n3CCN(CC)CC)c21`, the TGI in experiment [1] is 3.38 µM; in [2], 4.37 µM; in experiment [3], 4.22 µM; in experiment [4] it was over 6.79 µM; in [5], 3.63 µM; in [6], 2.38 µM. Besides, the TGI was determined as 8.15 µM in experiment [7], 2.81 µM in [8], 6.82 µM in experiment [9] and 5.15 µM in experiment [10].
Turning to `CC/C(=N\Nc1nc2ccccc2n1C)c1ccccn1`, the GI50 in experiment [1] is 0.175 µM; in [2], 0.184 µM; in [3], 0.0294 µM; in experiment [4], 0.118 µM; in experiment [5], 0.0929 µM; in [6] it was 0.174 µM. For the same molecule, the GI50 in [7] was 0.128 µM; in experiment [8] it was 0.478 µM; in [9], 0.0863 µM; in experiment [10], 0.142 µM. The TGI stood at 3.34 µM in experiment [1]; 4.82 µM in [2]; 7.76 µM in experiment [3]; 5.32 µM in [4]; 14 µM in [5]; 1.39 µM in experiment [6]. The TGI in [7] is 12.7 µM; in [8], 8.84 µM; in [9], 11 µM; in [10], 0.839 µM.
Turning to `CCN1CCC[C@H]1c1cc(O)c2c(c1OC)C[C@H]1C[C@H]3[C@H](N)C(=O)C(C(N)=O)=C(O)[C@@]3(O)C(=O)C1=C2O`, the GI50 in experiment [1] was 0.0517 µM; in experiment [2] it was 0.0522 µM; in experiment [3] it was 0.0419 µM; in [4], 0.0386 µM; in experiment [5], 0.0587 µM; in [6], 0.0797 µM. For the same molecule, the GI50 in experiment [7] was 0.0682 µM; in [8], 0.0609 µM; in experiment [9], 0.0442 µM; in [10], 0.0668 µM. The TGI in experiment [1] is 1.67 µM; in [2], 3.52 µM; in experiment [3], 4.95 µM; in experiment [4], 1.23 µM; in experiment [5], 3.01 µM; in experiment [6] it was 0.951 µM. Moreover, the TGI in experiment [7] worked out at 1.5 µM; in experiment [8] it was 1.58 µM; in experiment [9], 1.88 µM; in experiment [10], 1.3 µM.
In the case of `Cc1cccc(CN(C)c2ccc(CO)c(Cl)c2)c1`, the GI50 in [1] is 7.41 µM; in [2], 3.46 µM; in experiment [3], 0.475 µM; in [4] it was 18 µM; in experiment [5] it was 16.1 µM; in experiment [6], 9.47 µM. For the same molecule, the GI50 was 15 µM in experiment [7], 18.8 µM in experiment [8], 5.07 µM in [9] and 0.301 µM in [10]. Also, the TGI is 40.6 µM in [1]; 28.2 µM in [2]; 2.67 µM in experiment [3]; 40.4 µM in [4]; over 79.5 µM in [5]; 22.3 µM in experiment [6]. Besides, the TGI amounted to 48.9 µM in experiment [7], 80 µM in experiment [8], 43.6 µM in [9] and 2.96 µM in experiment [10].
Turning to `COc1ccc(/C=C/C(=O)c2sc(N)nc2C)cc1`, the TGI in experiment [1], in experiment [2], in [3], in [4], in experiment [5] and in experiment [6] was over 100 µM throughout. The TGI in experiment [7], in experiment [8], in [9] and in [10] was over 100 µM throughout.
Consider `COc1c(OC(C)=O)cc2c(OC(C)=O)c1CC(C)CC(OC)C(O)C(C)/C=C(\C)C(OC(N)=O)C(OC)/C=C\C=C(/C)C(=O)N2` (stereo not given), for which the TGI in experiment [1], in experiment [2], in [3], in [4], in [5] and in experiment [6] was over 100 µM each time. Further, the TGI in [7], in experiment [8], in [9] and in [10] was over 100 µM throughout.
